# Results as given in publication PMC10879502, “Linking ATP and allosteric sites to achieve superadditive binding with bivalent EGFR kinase inhibitors” (Communications Chemistry, 2024).
# Several values for one entry are separate records, joined by “and”; a condition that tells them apart may be missing. Equal entries are not always repeated. Where two headings read alike, the source gives them in different places.
# Assays:
# [1] = test system: Ba/F3 cells, L858R/T790M EGFR; settings: Ba/F3 ref 4 Wittlinger and Heppner; read-out: EGFR EC50, LR/TM; cited from earlier work
# [2] = test system: Ba/F3 cells, LR/TM/CS EGFR; settings: Ba/F3 ref 4 Wittlinger and Heppner; cited from earlier work
# Ba/F3 cells, L858R EGFR = settings: Ba/F3 ref 4 Wittlinger and Heppner; read-out: EGFR EC50, LR; cited from earlier work
# [3] = test system: Ba/F3 cells, wildtype EGFR; settings: Ba/F3 ref 4 Wittlinger and Heppner; read-out: EGFR EC50, wt; cited from earlier work
# [4] = target: T1, EGFR L858R/T790M/C797S (LRTMCS) kinase domain (Homo sapiens, UniProt P00533, C797S/L858R/T790M); test: HTRF KinEASE-TK kinase activity assay; format: biochemical
# T1 construct: The EGFR kinase domain (residues 696–1022) was cloned into pTriEx; 6xHis (N, cleaved yes); GST (N, cleaved yes); made in house; host or cells: SF9 insect cells, baculovirus
# [5] = target: T2, EGFR L858R (LR) kinase domain (Homo sapiens, UniProt P00533, L858R); test: HTRF KinEASE-TK kinase activity assay; format: biochemical
# T2 construct: The EGFR kinase domain (residues 696–1022) was cloned into pTriEx; 6xHis (N, cleaved yes); GST (N, cleaved yes); made in house; host or cells: SF9 insect cells, baculovirus
# [6] = test system: EGFR phosphorylation (pY1068) in H1975 cells; test: Western blot; format: cell-based, human; settings: H1975, 6 h
# Description: H1975, H3255, H3255GR and HCC827 lung adenocarcinoma cells (obtained from Dr. Pasi Jänne in Dana-Farber Cancer Institute, 2022) were cultured in RPMI 1640 media (Corning, 1004-CV) supplemented with 10% FBS (Tissue Culture Biologicals, 35-010-CV) and 1% penicillin-streptomycin (P/S, Corning, 30-002-CI). All cell lines were tested negative for Mycoplasma using Myco-Sniff-Rapid™ Mycoplasma Luciferase Detection Kit Plus PCR Primer Set (MP biomedicals, 0930504-CF) and were passaged and/or used for no longer than 4 weeks for all experiments H1975 and HCC-827 cells were seeded in 6-well plates with 400,000 cells per well and incubated overnight. H3255 and H3255GR cells were seeded in 12-well plates with 200,000 cells per well and were grown to confluency after 48 h. Culture medium was removed, cells washed with PBS, and lysed with lysis buffer containing 5 M NaCl, 1 M TRIS pH 8.0, 10% SDS, 10% Triton X-100 and a tablet of protease and phosphatase inhibitor. Protein lysate concentration was analyzed using Pierce BCA kit (ThermoFisher, 23225). Protein samples (10 µg) were resolved on hand-cast Criterion Tris-HCl protein gels. Primary antibodies used; phospho-EGFR (Tyr1068; #2234, 1:1,000), EGFR (#4267; 1:1,000), phospho-AKT (Ser473; #4060, 1:1,000), AKT (#9272, 1:1,000), phospho-ERK1/2 (Thr202/Tyr204; #4370, 1:1,000), and ERK1/2 (#4695, 1:1,000) antibodies; were purchased from Cell Signaling Technology. Secondary Goat anti-rabbit IgG starbright blue 700 (Biorad, 64484700) and Anti-tubulin hFAB Rhodamine Tubulin (Bio-Rad, 64512248). Western blots were visualized with the ChemiDoc MP imager (Bio-Rad) utilizing the Image Lab Touch Software (version 2.4.0.03). All Western blot images are representatives of at least 3 independent replicate experiments.
# WT EGFR kinase domain = target: T3, WT EGFR kinase domain (Homo sapiens, UniProt P00533); test: HTRF KinEASE-TK kinase activity assay; format: biochemical
# T3 construct: The EGFR kinase domain (residues 696–1022) was cloned into pTriEx; 6xHis (N, cleaved yes); GST (N, cleaved yes); made in house; host or cells: SF9 insect cells, baculovirus
# [7] = target: T4, EGFR L858R/T790M (LRTM) kinase domain (Homo sapiens, UniProt P00533, L858R/T790M); test: HTRF KinEASE-TK kinase activity assay; format: biochemical; settings: for linking coefficients: limits estimated from LRTM IC50 values; for Linking coefficient E: LRTM IC50, upper limit; for activity: LRTM, read-out: percent inhibition
# T4 construct: The EGFR kinase domain (residues 696–1022) was cloned into pTriEx; 6xHis (N, cleaved yes); GST (N, cleaved yes); made in house; host or cells: SF9 insect cells, baculovirus
# [8] = enzyme 0.02 nM, ATP 100 µM, read-out: Biochemical EGFR IC50, LRTMCS
# [9] = enzyme 0.1 nM, ATP 100 µM, read-out: Biochemical EGFR IC50, LR
# [10] = enzyme 10 nM, ATP 100 µM, read-out: Biochemical EGFR IC50, WT
# [11] = Table S1, ATP 100 µM, read-out: IC50, LRTM
# [12] = enzyme 0.02 nM, ATP 100 µM, read-out: Biochemical EGFR IC50, LRTM
structure (smiles),measurement,setting,value
C=CC(=O)Nc1cc(Nc2nccc(-c3cn(C)c4ccccc34)n2)c(OC)cc1N(C)CCN(C)C [AZD9291],EC50,[1],8 nM
same,EC50,[2],1200 ± 130 nM
same,EC50,"Ba/F3 cells, L858R EGFR",3.3 ± 0.6 nM
same,EC50,[3],110 ± 40 nM
CSc1nc(-c2cccc(CN3C(=O)c4ccccc4Nc4ccc(F)cc43)c2)c(-c2ccnc(NC(C)=O)c2)[nH]1 [Compound 1],activity at 3.181 pM,"[4]; LRTMCS, [Inhibitor] 0.00318089 nM, read-out: percent inhibition",103%
same,activity at 7.783 pM,"[4]; LRTMCS, [Inhibitor] 0.00778314 nM, read-out: percent inhibition",94.6%
same,activity at 19.04 pM,"[4]; LRTMCS, [Inhibitor] 0.0190441 nM, read-out: percent inhibition",99.4%
same,activity at 46.6 pM,"[4]; LRTMCS, [Inhibitor] 0.0465979 nM, read-out: percent inhibition",97.2%
same,activity at 0.000114018 µM,"[4]; LRTMCS, [Inhibitor] 0.114018 nM, read-out: percent inhibition",94.5%
same,activity at 0.000278983 µM,"[4]; LRTMCS, [Inhibitor] 0.278983 nM, read-out: percent inhibition",83%
same,activity at 0.000682626 µM,"[4]; LRTMCS, [Inhibitor] 0.682626 nM, read-out: percent inhibition",67.9%
same,activity at 0.00167028 µM,"[4]; LRTMCS, [Inhibitor] 1.67028 nM, read-out: percent inhibition",39.3%
same,activity at 0.0040869 µM,"[4]; LRTMCS, [Inhibitor] 4.0869 nM, read-out: percent inhibition",19.2%
same,activity at 0.01 µM,"[4]; LRTMCS, [Inhibitor] 10 nM, read-out: percent inhibition",9.7%
same,activity at 1.3 pM,"[4]; LRTMCS, [Inhibitor] […], read-out: percent inhibition",102%
same,IC50,[4]; [8],> 10000 nM
same,IC50,"[4]; read-out: IC50, LRTMCS",≥ 1000 nM
same,activity at 3.181 pM,"[5]; LR, [Inhibitor] 0.00318089 nM, read-out: percent inhibition",103%
same,activity at 7.783 pM,"[5]; LR, [Inhibitor] 0.00778314 nM, read-out: percent inhibition",94.6%
same,activity at 19.04 pM,"[5]; LR, [Inhibitor] 0.0190441 nM, read-out: percent inhibition",99.4%
same,activity at 46.6 pM,"[5]; LR, [Inhibitor] 0.0465979 nM, read-out: percent inhibition",97.2%
same,activity at 0.000114018 µM,"[5]; LR, [Inhibitor] 0.114018 nM, read-out: percent inhibition",94.5%
same,activity at 0.000278983 µM,"[5]; LR, [Inhibitor] 0.278983 nM, read-out: percent inhibition",83%
same,activity at 0.000682626 µM,"[5]; LR, [Inhibitor] 0.682626 nM, read-out: percent inhibition",67.9%
same,activity at 0.00167028 µM,"[5]; LR, [Inhibitor] 1.67028 nM, read-out: percent inhibition",39.3%
same,activity at 0.0040869 µM,"[5]; LR, [Inhibitor] 4.0869 nM, read-out: percent inhibition",19.2%
same,activity at 0.01 µM,"[5]; LR, [Inhibitor] 10 nM, read-out: percent inhibition",9.7%
same,activity at 1.3 pM,"[5]; LR, [Inhibitor] […], read-out: percent inhibition",102%
same,IC50,[5]; [9],1300 ± 100 nM
same,IC50,"[5]; read-out: IC50, LR",≥ 1000 nM
same,suppression of EGFR phosphorylation,[6],limited ability to suppress phosphorylation
same,IC50,WT EGFR kinase domain; [10],> 10000 nM
same,IC50,"WT EGFR kinase domain; read-out: IC50, WT",≥ 1000 nM
same,IC50,[7]; [11],≥ 1000 nM
same,IC50,[7]; [12],> 10000 nM
same,linking coefficients,[7],> 2e+07 M⁻¹
CCc1nc(-c2cccc(NC(=O)c3cccc4c3NC(=O)c3ccccc3N4)c2)c(-c2ccnc(NC(C)=O)c2)[nH]1 [Compound 3],activity,"[4]; LRTMCS, [Inhibitor] 1.3e-5 nM, read-out: percent inhibition",95.4% and 96.9% and 90.5%
same,activity,"[4]; LRTMCS, [Inhibitor] 3.18e-5 nM, read-out: percent inhibition",86.7% and 90.8% and 88.7%
same,activity,"[4]; LRTMCS, [Inhibitor] 7.78e-5 nM, read-out: percent inhibition",65.8% and 67.4% and 61.5%
same,activity at 190.4 fM,"[4]; LRTMCS, [Inhibitor] 0.000190441 nM, read-out: percent inhibition",34.4%
same,activity at 466 fM,"[4]; LRTMCS, [Inhibitor] 0.000465979 nM, read-out: percent inhibition",15.1%
same,activity at 1.14 pM,"[4]; LRTMCS, [Inhibitor] 0.00114018 nM, read-out: percent inhibition",9.97%
same,activity at 2.79 pM,"[4]; LRTMCS, [Inhibitor] 0.00278983 nM, read-out: percent inhibition",5.05%
same,activity at 6.826 pM,"[4]; LRTMCS, [Inhibitor] 0.00682626 nM, read-out: percent inhibition",3.24%
same,activity at 16.7 pM,"[4]; LRTMCS, [Inhibitor] 0.0167028 nM, read-out: percent inhibition",1.45%
same,IC50,[4]; [8],0.063 ± 0.005 nM
same,IC50,"[4]; read-out: IC50, LRTMCS",0.051 to 0.064 nM
same,activity,"[5]; LR, [Inhibitor] 1.3e-5 nM, read-out: percent inhibition",95.4% and 96.9% and 90.5%
same,activity,"[5]; LR, [Inhibitor] 3.18e-5 nM, read-out: percent inhibition",86.7% and 90.8% and 88.7%
same,activity,"[5]; LR, [Inhibitor] 7.78e-5 nM, read-out: percent inhibition",65.8% and 67.4% and 61.5%
same,activity at 190.4 fM,"[5]; LR, [Inhibitor] 0.000190441 nM, read-out: percent inhibition",34.4%
same,activity at 466 fM,"[5]; LR, [Inhibitor] 0.000465979 nM, read-out: percent inhibition",15.1%
same,activity at 1.14 pM,"[5]; LR, [Inhibitor] 0.00114018 nM, read-out: percent inhibition",9.97%
same,activity at 2.79 pM,"[5]; LR, [Inhibitor] 0.00278983 nM, read-out: percent inhibition",5.05%
same,activity at 6.826 pM,"[5]; LR, [Inhibitor] 0.00682626 nM, read-out: percent inhibition",3.24%
same,activity at 16.7 pM,"[5]; LR, [Inhibitor] 0.0167028 nM, read-out: percent inhibition",1.45%
same,IC50,[5]; [9],1.2 ± 0.09 nM
same,suppression of EGFR phosphorylation,[6],"also effective in H1975 cells, however to a lesser extent than 4"
same,IC50,WT EGFR kinase domain; [10],< 10 nM
same,Linking coefficient E,"[7]; ATP fragment 5, allosteric fragment 10",< 0.88 M⁻¹
same,Linking coefficient E,"[7]; ATP fragment 6, allosteric fragment 10",< 0. 51 M-1
same,activity,[7]; [Inhibitor] 1.3e-5 nM,80.3% and 89% and 81.1%
same,activity,[7]; [Inhibitor] 3.18e-5 nM,69.3% and 75.7% and 76.3%
same,activity,[7]; [Inhibitor] 7.78e-5 nM,34.1% and 36.2% and 33.7%
same,activity,"[7]; [Inhibitor] 0.000190441 nM, 190.4 fM",16.3% and 13.5%
same,activity,"[7]; [Inhibitor] 0.000465979 nM, 466 fM",5.63% and 5.16%
same,activity,"[7]; [Inhibitor] 0.00114018 nM, 1.14 pM",4.05% and 3.39%
same,activity,"[7]; [Inhibitor] 0.00278983 nM, 2.79 pM",3.12% and 3.28%
same,activity,"[7]; [Inhibitor] 0.00682626 nM, 6.826 pM",2.4% and 2.45%
same,IC50,"[7]; Table S1, read-out: IC50, LRTM",0.051 to 0.064 nM and 0.051 to 0.059 nM
same,IC50,[7]; [12],0.051 ± 0.005 nM
same,linking coefficients,[7],0.5 to 1.0 M⁻¹
"CSc1nc(-c2ccc(F)cc2)c(-c2ccnc(NC(C)=O)c2)[nH]1 [Compound 5, reference compound]",IC50,[4]; [8],6000 ± 500 nM
same,IC50,"[4]; read-out: IC50, LRTMCS",6000 to 10000 nM
same,IC50,[7]; [11],6000 to 10000 nM and ≥ 6000 nM
same,IC50,[7]; [12],5800 ± 300 nM
C=CC(=O)Nc1ccc(OC)c(Nc2cc(-c3[nH]c(SC)nc3-c3ccc(F)cc3)ccn2)c1 [Compound 7],EC50,[2],1600 ± 200 nM
same,EC50,"Ba/F3 cells, L858R EGFR",< 1 nM
same,EC50,[3],20 ± 6 nM
"O=C1c2cc(F)ccc2Nc2ccccc2N1Cc1ccccc1 [Compound 9, reference compound]",IC50,[4]; [8],39 to 59 nM
same,IC50,WT EGFR kinase domain; [10],> 1000 nM
same,IC50,[7]; [12],52 nM
O=C1Nc2c(cccc2C(=O)Nc2ccccc2)Nc2ccccc21 [Compound 10],"IC50, LRTM","[7]; Table S1, ATP 100 µM",virtually inactive
same,IC50,[7]; [11],≥ 10000 nM
O=C1Nc2c(cccc2C(=O)Nc2nccs2)Nc2ccccc21 [Compound 11],IC50,[7]; [11],≥ 10000 nM
COc1ccc2c(c1)C(=O)Nc1c(cccc1C(=O)Nc1nccs1)N2 [Compound 12],IC50,[7]; [11],≥ 10000 nM
